Key:
Rat FAAH = target: T1, Rat FAAH (Rattus norvegicus, UniProt P97612); experiment: Assay Method 2: FAAH assay, 3H-anandamide hydrolysis in cell homogenate (SK-N-MC cells transfected with rat FAAH); assay type: biochemical; conditions: 3H-AEA 80 nM, rt 1 h, pH 9
T1 construct: expressed in transfected cells
T1 sequence (P97612 1-579): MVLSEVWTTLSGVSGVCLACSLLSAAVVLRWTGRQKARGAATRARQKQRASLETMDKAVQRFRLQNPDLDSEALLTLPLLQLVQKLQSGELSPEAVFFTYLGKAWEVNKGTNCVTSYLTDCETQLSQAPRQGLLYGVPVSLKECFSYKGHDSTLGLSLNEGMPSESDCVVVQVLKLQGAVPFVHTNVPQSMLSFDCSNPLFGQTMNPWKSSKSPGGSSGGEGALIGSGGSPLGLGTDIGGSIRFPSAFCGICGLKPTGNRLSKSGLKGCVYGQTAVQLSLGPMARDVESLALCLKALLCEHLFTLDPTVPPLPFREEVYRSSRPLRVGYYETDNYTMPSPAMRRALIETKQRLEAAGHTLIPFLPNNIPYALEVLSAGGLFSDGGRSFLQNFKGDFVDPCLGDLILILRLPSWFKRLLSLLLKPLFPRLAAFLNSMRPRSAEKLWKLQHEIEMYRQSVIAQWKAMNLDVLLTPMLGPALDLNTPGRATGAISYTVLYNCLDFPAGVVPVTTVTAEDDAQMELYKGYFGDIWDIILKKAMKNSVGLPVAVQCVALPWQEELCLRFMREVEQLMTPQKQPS
Method: A. Transfection of Cells with Rat FAAH
(§1) A 10-cm tissue culture dish with a confluent monolayer of SK—N-MC cells was split 2 days (d) prior to transfection. Using sterile technique, the media was removed and the cells were detached from the dish by the addition of trypsin. One fifth of the cells were then placed onto a new 10-cm dish. Cells were grown in a 37° C. incubator with 5% CO2 in Minimal Essential Media Eagle with 10% Fetal Bovine Serum. After 2 d, cells were approximately 80% confluent. These cells were removed from the dish with trypsin and pelleted in a clinical centrifuge. The pellet was re-suspended in 400 μL complete media and transferred to an electroporation cuvette with a 0.4 cm gap between the electrodes. Supercoiled rat FAAH cDNA (1 μg) was added to the cells and mixed. The voltage for the electroporation was set at 0.25 kV, and the capacitance was set at 960 μF. After electroporation, the cells were diluted into complete media (10 mL) and plated onto four 10-cm dishes. Because of the variability in the efficiency of electroporation, four different concentrations of cells were plated. The ratios used were 1:20, 1:10, and 1:5, with the remainder of the cells being added to the fourth dish. The cells were allowed to recover for 24 h before adding the selection media (complete media with 600 μg/mL G418). After 10 d, dishes were analyzed for surviving colonies of cells. Dishes with well-isolated colonies were used. Cells from individual colonies were isolated and tested.
The assay mixture consisted of 50 μL of the cell homogenate, 10 μL of the test compound, and 40 μL of anandamide [1-^3H-ethanolamine] (^3H-AEA, Perkin-Elmer, 10.3 Ci/mmol), which was added last, for a final tracer concentration of 80 nM. The reaction mixture was incubated at rt for 1 h. During the incubation, 96-well Multiscreen filter plates (catalog number MAFCNOB50; Millipore, Bedford, Mass., USA) were loaded with 25 μL of activated charcoal (Multiscreen column loader, catalog number MACL09625, Millipore) and washed once with 100 μL of MeOH. […] After the 1 h incubation, 60 μL of the reaction mixture were transferred to the charcoal plates, which were then assembled on top of the DYNEX plates using Centrifuge Alignment Frames (catalog number MACF09604, Millipore). The unbound labeled ethanolamine was centrifuged through to the bottom plate (5 min at 2000 rpm), which was preloaded with the scintillant, as described above. The plates were sealed and left at rt for 1 h before counting on a Hewlett Packard TopCount.

FAAH [1] = target: T2, FAAH (Rattus norvegicus, UniProt P97612); experiment: Assay Method 1A: FAAH enzyme assay, 14C-oleamide hydrolysis, solubilized liver plasma membrane extract;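 note: ki obtained by Dixon analysis, taking the x-intercept of inhibitor concentration versus reciprocal rate plots at fixed substrate level and correcting for substrate concentration relative to Km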
T2 sequence (P97612 1-579): T1 sequence (P97612 1-579)
Method: Linear least squares fits were used for all reaction progress curves and R^2 values were consistently >0.97. […] Ki values were determined by the Dixon Method (x-intercepts of weighted linear fits of [I] versus 1/rate plots at constant substrate concentration, which were converted to Ki values using the formula Ki=−xint/[1+[S]/Km]).

FAAH [2] = target: T3, FAAH (Homo sapiens, UniProt O00519); experiment: Assay Method 1B: FAAH assay, 3H-anandamide hydrolysis in cell homogenate (T84 or SK-N-MC cells transfected with human FAAH); assay type: biochemical; design: expressed in transfected cells; conditions: 3H-AEA 80 nM, rt 1 h, pH 9
T3 sequence (O00519 1-579): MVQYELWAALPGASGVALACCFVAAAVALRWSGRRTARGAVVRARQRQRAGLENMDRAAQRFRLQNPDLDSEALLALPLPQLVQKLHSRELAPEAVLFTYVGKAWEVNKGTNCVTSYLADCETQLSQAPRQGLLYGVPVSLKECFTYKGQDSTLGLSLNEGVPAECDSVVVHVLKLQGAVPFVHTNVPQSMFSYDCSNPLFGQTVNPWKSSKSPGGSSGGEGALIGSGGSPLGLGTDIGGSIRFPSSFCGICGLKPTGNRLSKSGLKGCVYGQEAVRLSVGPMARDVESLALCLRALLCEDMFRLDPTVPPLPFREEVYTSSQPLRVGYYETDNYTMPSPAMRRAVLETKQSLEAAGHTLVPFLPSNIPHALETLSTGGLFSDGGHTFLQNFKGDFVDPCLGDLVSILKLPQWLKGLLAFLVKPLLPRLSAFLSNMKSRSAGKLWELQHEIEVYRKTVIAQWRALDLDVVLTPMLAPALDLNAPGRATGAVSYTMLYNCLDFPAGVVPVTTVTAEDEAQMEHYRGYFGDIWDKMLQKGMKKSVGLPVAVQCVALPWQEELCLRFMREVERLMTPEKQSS
Method: as §1, with “Transfection of Cells with Human FAAH A 10-cm” for “A 10-cm”, “electrodes. Supercoiled human FAAH cDNA” for “electrodes. Supercoiled rat FAAH cDNA”, “and tested. […] The reaction mixture was incubated at rt for 1 h. During the incubation, 96-well Multiscreen filter plates (catalog number MAFCNOB50; Millipore, Bedford, Mass., USA) were loaded with 25 μL of activated charcoal (Multiscreen column loader, catalog number MACL09625, Millipore) and washed once with 100 μL of MeOH. Also during the incubation, 96-well DYNEX MicroLite plates (catalog number NL510410) were loaded with 100 μL of MicroScint40 (catalog number 6013641, Packard Bioscience, Meriden, Conn., USA). After the 1 h incubation, 60 μL of the reaction mixture were transferred to the charcoal plates, which were then assembled on top of the DYNEX plates using Centrifuge Alignment Frames (catalog number MACF09604, Millipore). The unbound labeled ethanolamine was centrifuged through to the bottom plate (5 min at 2000 rpm), which was preloaded with the scintillant, as described above. The plates were sealed and left at rt for 1 h before counting on a Hewlett Packard TopCount.” for “and tested.”

`Nc1ccccc1-c1cnc(C(=O)CCCCCCc2ccccc2)o1` [Example 27, 1-(5-(2-Aminophenyl)oxazol-2-yl)-7-phenylheptan-1-one] showed an IC50 (Rat FAAH) of 4000 nM, a Ki (FAAH [1]) of 750 nM and an IC50 (FAAH [2]) of 1000 nM.
For `O=C(CCCCCCc1ccccc1)c1ncc(-c2ccccc2[N+](=O)[O-])o1` [Example 1, 1-(5-(2-Nitrophenyl)oxazol-2-yl)-7-phenylheptan-1-one], the IC50 (Rat FAAH) was 500 nM, the Ki (FAAH [1]) was 125 nM and the IC50 (FAAH [2]) was 340 nM.
Molecule `O=C(O)c1cccc(-c2cnc(C(=O)CCCCCCc3ccccc3)o2)c1` [Example 25, 3-(2-(7-Phenylheptanoyl)oxazol-5-yl)benzoic acid] has an IC50 (Rat FAAH) of 11 nM, a Ki (FAAH [1]) of 5 nM and an IC50 (FAAH [2]) of 4 nM.
`COC(=O)c1cccc(-c2cnc(C(=O)CCCCCCc3ccccc3)o2)c1` [Example 23, Methyl 3-(2-(7-phenylheptanoyl)oxazol-5-yl)benzoate] gave an IC50 (Rat FAAH) of 100 nM, a Ki (FAAH [1]) of 12 nM and an IC50 (FAAH [2]) of 15 nM.
`COC(=O)c1ccc(-c2cnc(C(=O)CCCCCCc3ccccc3)o2)cc1` [Example 24, Methyl 4-(2-(7-phenylheptanoyl)oxazol-5-yl)benzoate] showed an IC50 (Rat FAAH) of 1000 nM, a Ki (FAAH [1]) of 40 nM and an IC50 (FAAH [2]) of 24 nM.
`O=C(CCCCCCc1ccccc1)c1ncc(-c2cc(=O)[nH]c(=O)[nH]2)o1` [Example 52, 6-(2-(7-Phenylheptanoyl)oxazol-5-yl)pyrimidine-2,4(1H,3H)-dione] was tested, and the IC50 (Rat FAAH) was 1.5 nM, the Ki (FAAH [1]) was 19 nM and the IC50 (FAAH [2]) was 0.1 nM.
Molecule `COC(=O)c1ccc(-c2cnc(C(=O)CCCCCCc3ccccc3)o2)o1` [Example 55, Methyl 5-(2-(7-phenylheptanoyl)oxazol-5-yl)furan-2-carboxylate] has an IC50 (Rat FAAH) of 20 nM, a Ki (FAAH [1]) of 6 nM and an IC50 (FAAH [2]) of 11 nM.
In the case of `COC(=O)c1cccnc1-c1cnc(C(=O)CCCCCCc2ccccc2)o1` [Example 36, Methyl 2-(2-(7-phenylheptanoyl)oxazol-5-yl)nicotinate], the IC50 (Rat FAAH) is reported as 150 nM, the Ki (FAAH [1]) is reported as greater than 50 nM and the IC50 (FAAH [2]) is reported as 180 nM.
`NS(=O)(=O)c1ccc(-c2cnc(C(=O)CCCCCCc3ccccc3)o2)cc1` [Example 21, 4-(2-(7-Phenylheptanoyl)oxazol-5-yl)benzenesulfonamide] showed an IC50 (Rat FAAH) of 53 nM, a Ki (FAAH [1]) of 10 nM and an IC50 (FAAH [2]) of 8 nM.
In the case of `COc1cccc(-c2cnc(C(=O)CCCCCCc3ccccc3)o2)c1` [Example 14, 1-(5-(3-Methoxyphenyl)oxazol-2-yl)-7-phenylheptan-1-one], the IC50 (Rat FAAH) is reported as 4500 nM, the Ki (FAAH [1]) is reported as 40 nM and the IC50 (FAAH [2]) is reported as 100 nM.
In the case of `O=C(CCCCCCc1ccccc1)c1ncc(-c2ccccc2O)o1` [Example 30, 1-(5-(2-Hydroxyphenyl)oxazol-2-yl)-7-phenylheptan-1-one], the IC50 (Rat FAAH) is reported as 3500 nM, the Ki (FAAH [1]) is reported as 170 nM and the IC50 (FAAH [2]) is reported as 115 nM.
Molecule `Nc1cccc(-c2cnc(C(=O)CCCCCCc3ccccc3)o2)c1` [Example 28, 1-(5-(3-Aminophenyl)oxazol-2-yl)-7-phenylheptan-1-one] has an IC50 (Rat FAAH) of 290 nM, a Ki (FAAH [1]) of 19 nM and an IC50 (FAAH [2]) of 17 nM.
`O=C(CCCCCCc1ccccc1)c1ncc(-c2cccc([N+](=O)[O-])c2)o1` [Example 2, 1-(5-(3-Nitrophenyl)oxazol-2-yl)-7-phenylheptan-1-one] was tested, and the IC50 (Rat FAAH) was 500 nM, the Ki (FAAH [1]) was 28 nM and the IC50 (FAAH [2]) was 50 nM.
Molecule `O=C(CCCCCCc1ccccc1)c1ncc(-c2cccc(F)c2)o1` [Example 11, 1-(5-(3-Fluorophenyl)oxazol-2-yl)-7-phenylheptan-1-one] has an IC50 (Rat FAAH) of 6300 nM, a Ki (FAAH [1]) of 60 nM and an IC50 (FAAH [2]) of 220 nM.
`O=C(CCCCCCc1ccccc1)c1ncc(-c2ccccc2F)o1` [Example 10, 1-(5-(2-Fluorophenyl)oxazol-2-yl)-7-phenylheptan-1-one] showed an IC50 (Rat FAAH) of 9000 nM, a Ki (FAAH [1]) of 110 nM and an IC50 (FAAH [2]) of 1600 nM.
With `O=C(CCCCCCc1ccccc1)c1ncc(-c2ccc([N+](=O)[O-])cc2)o1` [Example 3, 1-(5-(4-Nitrophenyl)oxazol-2-yl)-7-phenylheptan-1-one] the IC50 (Rat FAAH) was 500 nM and the IC50 (FAAH [2]) was 110 nM.
`O=C(CCCCCCc1ccccc1)c1ncc(-c2ccc(F)cc2)o1` [Example 12, 1-(5-(4-Fluorophenyl)oxazol-2-yl)-7-phenylheptan-1-one] was tested, and the IC50 (Rat FAAH) was 1000 nM and the IC50 (FAAH [2]) was 100 nM.
`O=C(CCCCCCc1ccccc1)c1ncc(-c2ccc(O)cc2)o1` [Example 32, 1-(5-(4-Hydroxyphenyl)oxazol-2-yl)-7-phenylheptan-1-one] was tested, and the IC50 (Rat FAAH) was 1800 nM and the IC50 (FAAH [2]) was 450 nM.
`O=C(CCCCCCc1ccccc1)c1ncc(-c2cccc(O)c2)o1` [Example 31, 1-(5-(3-Hydroxyphenyl)oxazol-2-yl)-7-phenylheptan-1-one] was tested, and the IC50 (Rat FAAH) was 570 nM and the IC50 (FAAH [2]) was 55 nM.
For `N#Cc1ccc(-c2cnc(C(=O)CCCCCCc3ccccc3)o2)cc1` [Example 18, 4-(2-(7-Phenylheptanoyl)oxazol-5-yl)benzonitrile], the IC50 (Rat FAAH) was 220 nM and the IC50 (FAAH [2]) was 290 nM.
`N#Cc1ccccc1-c1cnc(C(=O)CCCCCCc2ccccc2)o1` [Example 16, 2-(2-(7-Phenylheptanoyl)oxazol-5-yl)benzonitrile] gave an IC50 (Rat FAAH) of 2000 nM and an IC50 (FAAH [2]) of 110 nM.

Source: patent US7915270B2, “Oxazole ketones as modulators of fatty acid amide hydrolase” (The Scripps Research Institute, priority 2006, dated 2011)
